Source: patent US20250276074A1, “BRM AND BRG1 TARGETING ANTIBODY-DRUG CONJUGATES AND METHODS OF USE THEREOF” (Prelude Therapeutics Incorporated, priority 2024, published 2025)

Assays:
SMARCA2 [1] = biological target: T1, SMARCA2 (Homo sapiens, UniProt P51531); assay: SMARCA2 HiBiT degradation assay in HeLa cells; type: cell-based; conditions: 18 hours
Protocol: (§1) HiBiT peptide knock-in of SMARCA2 in LgBiT expressing HEK293T cells was performed by CRISPR-mediated tagging system as described Promega. The homozygous HiBiT knock-in on c-terminus SMARCA2 was confirmed by sanger sequence. SMARCA2-HiBiT knock-in Hela monoclonal cell (CS302366) and SMARCA4-HiBiT knock-in Hela monoclonal cell (CS3023226) were purchased from Promega. The heterozygous HiBiT-knock-in was confirmed by sanger sequence in both SMARCA2-HiBiT and SMARCA4-HiBiT monoclonal cells.
(§2) Dispense 10ul aliquot of prepared Hela-SMARCA2-HiBiT or Hela-SMARCA4-HiBiT cells (1:1 ratio of cells:Trypan Blue (#1450013, Bio-Rad)) onto cell counting slide (#145-0011, Bio-Rad) and obtain cell density and cell viability using cell counter (TC20, Bio-Rad). Remove appropriate volume of resuspended cells from culture flask to accommodate 2500 cells/well @20 μL/well. Transfer Hela-HiBiT cells to 50 mL conical (#430290, Corning). Spin down at 1000 rpm for 5 min using tabletop centrifuge (SPINCHRON 15, Beckman). Discard supernatant and resuspend cell pellet in modified EMEM (#30-2003, ATCC) cell culture media containing 10% FBS (F2422-500ML, Sigma), and 1× Penicillin/Streptomycin (200 g/L) (30-002-CI, Corning) to a cell density of 125,000 cells/mL. Dispense […] of resuspended Hela-HiBit cells per well in 384-well TC treated plate (#12-565-343, Thermo Scientific) using standard cassette (#50950372, Thermo Scientific) on Multidrop Combi (#5840310, Thermo Scientific) inside laminar flow cabinet.
(§3) The degrader compounds of Table 4 were dissolved in DMSO to make 10 mM stock and 3-fold series dilutions were further conducted keeping the highest concentration 10 μM. Dispense test compounds onto plates using digital liquid dispenser (D300E, Tecan). Incubate plates in humidified tissue culture incubator at 37° C. for 18 hours. Add […] of prepared Nano-Glo® HiBiT Lytic detection buffer (N3050, Promega) to each well of 384-well plate using small tube cassette (#24073295, Thermo Scientific) on Multidrop Combi, incubate at room temperature for 30-60 min. Read plates on microplate reader (Envision 2105, PerkinElmer) using 384 well Ultra-Sensitive luminescence mode. Raw data files and compound information reports are swept into centralized data lake and deconvoluted using automated scripts designed by TetraScience, Inc. Data analysis, curve-fitting and reporting done in Dotmatics Informatics Suite using Screening Ultra module.

SMARCA4 [2] = biological target: T2, SMARCA4 (Homo sapiens, UniProt P51532); assay: SMARCA4 HiBiT degradation assay in HeLa cells; type: cell-based; design: SMARCA4-HiBiT knock-in Hela monoclonal cell (CS3023226) were purchased from Promega; host or cells: HeLa SMARCA4-HiBiT knock-in monoclonal cells (heterozygous); conditions: 18 hours; for Dmax: HeLa
Protocol: as §1, §2, §3

[3] = tested on: SMARCA4 mutated cancer cells; conditions: Vangamudi et al. Cancer Res 2015; cited from earlier work
PSMA negative PC3 tumors = assay: Tumor growth inhibition in PSMA negative PC3 tumors, weekly administration; type: in vivo, mouse; conditions: FIGS. 3A-3B
[4] = Tolerability in the LNCaP CDX efficacy study; conditions: CB17 SCID mice with LNCaP tumors
Protocol: In-life evaluation was conducted using 6-8-week-old male CB17 SCID mice that were subcutaneously inoculated with LNCaP tumor cells mixed 1:1 with Matrigel. Mice were castrated 3 days prior to randomization, which was done when tumors for efficacy evaluation would reach 100 mm^3-400 mm^3.

SMARCA4 [5] = biological target: T2, SMARCA4; assay: Single dose pharmacodynamics, SMARCA4 in LNCaP tumors by western blot; type: in vivo; design: from tissue; host or cells: LNCaP xenograft tumours from CB17 SCID mice; conditions: mouse, LNCaP tumors in mice, tumors collected 1-5 days later, read-out: maximal degradation of SMARCA4
Protocol: (§4) In-life evaluation was conducted using 6-8-week-old male CB17 SCID mice that were subcutaneously inoculated with LNCaP tumor cells mixed 1:1 with Matrigel. Mice were castrated 3 days prior to randomization, which was done when tumors for efficacy evaluation would reach 100 mm^3-400 mm^3. […] Tumors were subsequently homogenized, and proteins were extracted before evaluating SMARCA2 and SMARCA4 expression by western blot.

SMARCA2 [6] = biological target: T1, SMARCA2; assay: Single dose pharmacodynamics, SMARCA2 in LNCaP tumors by western blot; type: in vivo; design: from tissue; host or cells: LNCaP xenograft tumours from CB17 SCID mice; conditions: mouse, LNCaP tumors in mice, tumors collected 1-5 days later, read-out: maximal degradation of SMARCA2
Protocol: as §4

[7] = Body weight and survival of mice in the PC3 tumor study; type: in vivo, mouse; conditions: weekly administration, FIGS. 3A-3B
[8] = tested on: PSMA+ prostate cancer CDX (LNCaP); assay: Anti-tumor efficacy in PSMA+ prostate cancer CDX (LNCaP); type: in vivo; conditions: castrated male CB17 SCID mice, 10 mg/kg s.c. Q3D, day 21
Protocol: as §4

[9] = iv, single dose 20 mg/kg i.v. infusion

T1 sequence (P51531 whole entry): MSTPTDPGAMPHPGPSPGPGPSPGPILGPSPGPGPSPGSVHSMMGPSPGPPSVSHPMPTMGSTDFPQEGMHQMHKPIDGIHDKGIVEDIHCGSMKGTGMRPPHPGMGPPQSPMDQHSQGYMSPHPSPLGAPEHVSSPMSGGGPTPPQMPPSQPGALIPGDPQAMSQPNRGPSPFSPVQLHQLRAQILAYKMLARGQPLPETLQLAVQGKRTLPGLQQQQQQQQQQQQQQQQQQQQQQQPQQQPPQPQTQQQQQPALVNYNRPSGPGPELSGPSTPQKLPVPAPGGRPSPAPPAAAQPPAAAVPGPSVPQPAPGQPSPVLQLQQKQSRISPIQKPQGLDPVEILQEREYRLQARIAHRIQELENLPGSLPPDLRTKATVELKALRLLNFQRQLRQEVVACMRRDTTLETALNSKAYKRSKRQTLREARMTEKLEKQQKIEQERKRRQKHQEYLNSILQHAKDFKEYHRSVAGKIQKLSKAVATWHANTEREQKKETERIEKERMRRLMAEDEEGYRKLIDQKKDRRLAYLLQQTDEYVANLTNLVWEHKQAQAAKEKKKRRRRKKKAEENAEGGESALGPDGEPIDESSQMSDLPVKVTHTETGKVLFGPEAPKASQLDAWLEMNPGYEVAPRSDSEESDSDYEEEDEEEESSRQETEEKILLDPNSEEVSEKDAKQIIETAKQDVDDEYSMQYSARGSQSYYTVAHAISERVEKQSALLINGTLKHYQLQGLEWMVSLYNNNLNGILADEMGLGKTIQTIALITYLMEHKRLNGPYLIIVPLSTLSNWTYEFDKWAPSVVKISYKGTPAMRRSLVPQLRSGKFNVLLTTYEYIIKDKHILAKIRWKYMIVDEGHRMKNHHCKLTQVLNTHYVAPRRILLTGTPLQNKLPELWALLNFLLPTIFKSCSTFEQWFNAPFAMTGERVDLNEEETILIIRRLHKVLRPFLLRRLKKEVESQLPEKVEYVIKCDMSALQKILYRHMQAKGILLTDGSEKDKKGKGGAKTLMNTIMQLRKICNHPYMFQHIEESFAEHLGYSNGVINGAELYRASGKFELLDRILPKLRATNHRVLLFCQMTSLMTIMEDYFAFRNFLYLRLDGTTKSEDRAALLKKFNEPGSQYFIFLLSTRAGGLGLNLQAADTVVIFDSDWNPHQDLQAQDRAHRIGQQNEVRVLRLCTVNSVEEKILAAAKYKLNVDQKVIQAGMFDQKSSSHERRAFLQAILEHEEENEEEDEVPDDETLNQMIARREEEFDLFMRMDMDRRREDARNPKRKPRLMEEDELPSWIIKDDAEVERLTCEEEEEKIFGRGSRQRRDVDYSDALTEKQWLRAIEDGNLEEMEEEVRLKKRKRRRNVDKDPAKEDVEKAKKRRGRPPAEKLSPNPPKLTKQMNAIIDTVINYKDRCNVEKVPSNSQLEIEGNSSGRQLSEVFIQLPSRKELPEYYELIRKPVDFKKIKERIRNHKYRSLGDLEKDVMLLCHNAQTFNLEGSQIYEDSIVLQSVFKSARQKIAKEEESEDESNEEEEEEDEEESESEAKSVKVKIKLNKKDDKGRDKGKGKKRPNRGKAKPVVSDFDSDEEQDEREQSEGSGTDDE
T2 sequence (P51532 whole entry): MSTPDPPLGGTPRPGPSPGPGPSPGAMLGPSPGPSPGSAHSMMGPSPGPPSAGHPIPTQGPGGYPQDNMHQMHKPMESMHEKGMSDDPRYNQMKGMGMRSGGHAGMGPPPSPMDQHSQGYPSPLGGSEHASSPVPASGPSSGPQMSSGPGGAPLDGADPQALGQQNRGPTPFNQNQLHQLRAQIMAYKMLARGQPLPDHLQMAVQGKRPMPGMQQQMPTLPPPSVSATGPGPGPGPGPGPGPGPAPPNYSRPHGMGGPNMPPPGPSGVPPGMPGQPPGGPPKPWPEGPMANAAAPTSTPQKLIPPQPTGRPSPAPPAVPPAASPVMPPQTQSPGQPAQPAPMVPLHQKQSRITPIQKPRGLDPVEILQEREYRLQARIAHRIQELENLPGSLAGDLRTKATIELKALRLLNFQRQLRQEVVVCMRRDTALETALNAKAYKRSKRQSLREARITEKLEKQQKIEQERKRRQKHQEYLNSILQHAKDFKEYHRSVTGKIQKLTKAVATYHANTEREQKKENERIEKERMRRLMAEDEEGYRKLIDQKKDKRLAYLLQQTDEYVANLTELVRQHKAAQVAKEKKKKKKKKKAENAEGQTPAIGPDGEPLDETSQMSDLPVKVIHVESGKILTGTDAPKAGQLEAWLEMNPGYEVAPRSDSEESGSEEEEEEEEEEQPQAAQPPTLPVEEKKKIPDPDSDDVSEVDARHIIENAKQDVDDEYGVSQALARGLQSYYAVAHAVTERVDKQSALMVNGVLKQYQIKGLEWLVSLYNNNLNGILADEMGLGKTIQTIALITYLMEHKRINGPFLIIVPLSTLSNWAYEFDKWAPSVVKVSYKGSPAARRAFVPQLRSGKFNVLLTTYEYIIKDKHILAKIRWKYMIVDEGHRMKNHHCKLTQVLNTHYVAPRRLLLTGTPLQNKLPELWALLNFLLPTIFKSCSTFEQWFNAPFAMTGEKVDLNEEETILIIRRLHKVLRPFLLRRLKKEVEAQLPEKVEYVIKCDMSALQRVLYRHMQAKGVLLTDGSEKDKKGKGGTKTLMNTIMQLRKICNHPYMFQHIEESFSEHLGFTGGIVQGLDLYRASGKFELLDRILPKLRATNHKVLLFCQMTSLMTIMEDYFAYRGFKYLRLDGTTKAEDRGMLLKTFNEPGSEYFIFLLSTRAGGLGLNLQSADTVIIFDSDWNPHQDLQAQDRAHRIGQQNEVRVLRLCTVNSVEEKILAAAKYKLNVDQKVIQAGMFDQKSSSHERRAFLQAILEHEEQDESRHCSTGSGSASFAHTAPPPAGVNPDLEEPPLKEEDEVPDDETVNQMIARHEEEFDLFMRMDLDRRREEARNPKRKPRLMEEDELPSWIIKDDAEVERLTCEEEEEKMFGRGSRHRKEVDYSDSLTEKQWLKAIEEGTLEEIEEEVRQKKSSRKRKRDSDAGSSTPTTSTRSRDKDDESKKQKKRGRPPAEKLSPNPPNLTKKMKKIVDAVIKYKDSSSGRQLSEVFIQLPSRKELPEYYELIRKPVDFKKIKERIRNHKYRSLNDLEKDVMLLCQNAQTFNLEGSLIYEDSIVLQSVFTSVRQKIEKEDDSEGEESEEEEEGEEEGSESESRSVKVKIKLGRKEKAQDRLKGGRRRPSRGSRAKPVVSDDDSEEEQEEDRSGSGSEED

SMILES | DC50 (SMARCA2 [1]) [nM] | Dmax (SMARCA2 [1]) [%] | DC50 (SMARCA4 [2]) [nM] | Dmax (SMARCA4 [2]) [%] | also measured
C[C@]12CNc3nnc(-c4ccccc4O)cc3N1C[C@H](Oc1ncc(CN3CCN(c4ccc5c(c4)C(=O)N([C@H]4CCC(=O)NC4=O)C5)CC3)cc1F)C2 [Compound 2] | 0.1 to 1 | > 90 | 0.1 to 1 | > 90 | 
Cc1ncsc1-c1ccc([C@H](C)NC(=O)[C@@H]2C[C@@H](O)CN2C(=O)[C@@H](c2cc(OCCN3CCC(N4CCN5c6cc(-c7ccccc7O)nnc6N[C@@H](C)[C@H]5C4)CC3)no2)C(C)C)cc1 [Compound 14] | 1 to 10 | 50 to 90 | 1 to 10 | 50 to 90 | 
CC[C@]12CNc3nnc(-c4ccccc4O)cc3N1C[C@H](Oc1ccc(CN3CCC(c4ccc5c(c4)C(=O)N([C@H]4CCC(=O)NC4=O)C5)CC3)cn1)C2 [Compound 10] | 0.1 to 1 | > 90 | 0.1 to 1 | 50 to 90 | 
O=C(/C=C/N1C[C@H]2C[C@@H]1CN2c1ccccn1)c1ccccc1O [PFI-3] |  |  |  |  | effects on cell proliferation inhibition [3]: none to minor effects
C[C@]12CNc3nnc(-c4ccccc4O)cc3N1C[C@H](Oc1ccc(CN3CCN(c4ccc5c(c4)C(=O)N([C@H]4CCC(=O)NC4=O)C5)CC3)cn1)C2 [Compound 1] | < 0.1 | > 90 | 0.1 to 1 | > 90 | tumor growth inhibition (PSMA negative PC3 tumors): did not induce significant tumor growth inhibition; body weight loss ([4]; 20 mg/kg i.v. infusion QW): minimal; mouse deaths ([4]; 20 mg/kg i.v. infusion QW): no mouse deaths; Dmax at 20 mg/kg (SMARCA4 [5]; [9]): 83%; Dmax at 20 mg/kg (SMARCA2 [6]; [9]): 98%
Cc1cc(CN2CCN(c3ccc4c(c3)C(=O)N([C@H]3CCC(=O)NC3=O)C4)CC2)cnc1O[C@H]1CN2c3cc(-c4ccccc4O)nnc3NC[C@]2(C)C1 [Compound 3] | 0.1 to 1 | > 90 | 0.1 to 1 |  | SMARCA4 Dmax (SMARCA4 [2]): B (50%<Dmax≤90%)
Cc1ncsc1-c1ccc([C@H](C)NC(=O)[C@@H]2C[C@@H](O)CN2C(=O)[C@@H](c2cc(OCCN3CCC(N4CCN5c6cc(-c7ccccc7O)nnc6N[C@H](C)[C@@H]5C4)CC3)no2)C(C)C)cc1 [Compound 12] | 1 to 10 | > 90 | 1 to 10 | > 90 | 
Cc1ncsc1-c1ccc([C@H](C)NC(=O)[C@@H]2C[C@@H](O)CN2C(=O)[C@@H](c2cc(OCCN3CCC(N4CCN5c6cc(-c7ccccc7O)nnc6N[C@H](C)[C@H]5C4)CC3)no2)C(C)C)cc1 [Compound 13] | 0.1 to 1 | > 90 | 1 to 10 | > 90 | 
Cc1ncsc1-c1ccc([C@H](C)NC(=O)[C@@H]2C[C@@H](O)CN2C(=O)[C@@H](c2cc(OCCN3CCC(N4CCN5c6cc(-c7ccccc7O)nnc6N[C@@H](C)[C@@H]5C4)CC3)no2)C(C)C)cc1 [Compound 11] | 0.1 to 1 | > 90 | 1 to 10 | > 90 | 
CC[C@]12CNc3nnc(-c4ccccc4O)cc3N1C[C@H](Oc1ncc(CN3CCN(c4ccc5c(c4)C(=O)N([C@H]4CCC(=O)NC4=O)C5)CC3)nc1C)C2 [Compound 8] | < 0.1 | > 90 | 0.1 to 1 | > 90 | 
Cc1ncsc1-c1ccc([C@H](C)NC(=O)[C@@H]2C[C@@H](O)CN2C(=O)[C@@H](c2cc(OCCN3CCC(CN4CCN5c6cc(-c7ccccc7O)nnc6NC[C@H]5C4)CC3)no2)C(C)C)cc1 [Compound 2] |  |  |  |  | mouse body weight loss and death [7]: caused mouse body weight loss and death; tumor growth inhibition (TGI) [8]: 93%; tumor growth inhibition (PSMA negative PC3 tumors): efficacious; mice died during the study ([4]; 10 mg/kg s.c. Q3D): 83.3%; Dmax at 10 mg/kg (SMARCA4 [5]; sc, single dose 10 mg/kg s.c.): 86%; Dmax at 10 mg/kg (SMARCA2 [6]; sc, single dose 10 mg/kg s.c.): 99%

Continued, in another order:

DC50 (SMARCA2 [1]) [nM] | Dmax (SMARCA2 [1]) [%] | DC50 (SMARCA4 [2]) [nM] | Dmax (SMARCA4 [2]) [%] | SMILES | also measured
< 0.1 | > 90 | 0.1 to 1 | 50 to 90 | Cc1cc(C(=O)N2CCN(c3ccc4c(c3)C(=O)N([C@H]3CCC(=O)NC3=O)C4)CC2)cnc1O[C@H]1CN2c3cc(-c4ccccc4O)nnc3NC[C@]2(C)C1 [Compound 5] | 
< 0.1 |  | 0.1 to 1 |  | Cc1cc(CN2CCN(c3ccc4c(c3)C(=O)N([C@H]3CCC(=O)NC3=O)C4)CC2)cnc1O[C@H]1CN2c3cc(-c4ccccc4O)nnc3NC[C@]2(C)C1 [Compound 4] | SMARCA2 Dmax (SMARCA2 [1]): A (Dmax>90%); SMARCA4 Dmax (SMARCA4 [2]): A (Dmax>90%)
< 0.1 | > 90 | 0.1 to 1 | 50 to 90 | CC[C@]12CNc3nnc(-c4ccccc4O)cc3N1C[C@H](Oc1ncc(C(=O)N3CCN(c4ccc5c(c4)C(=O)N([C@H]4CCC(=O)NC4=O)C5)CC3)cc1C)C2 [Compound 7] | 
< 0.1 | > 90 | < 0.1 | > 90 | CC[C@]12CNc3nnc(-c4ccccc4O)cc3N1C[C@H](Oc1ncc(CN3CCN(c4ccc5c(c4)C(=O)N([C@H]4CCC(=O)NC4=O)C5)CC3)cc1C)C2 [Compound 6] | 
< 0.1 | > 90 | 0.1 to 1 | > 90 | CC[C@]12CNc3nnc(-c4ccccc4O)cc3N1C[C@H](Oc1ccc(CN3CCN(c4ccc5c(c4)C(=O)N([C@H]4CCC(=O)NC4=O)C5)CC3)cn1)C2 [Compound 9] | 
